Experimental data as given in publication PMC12856912, “Structure-Guided Semisynthesis of Blasticidin S–Amicetin Chimeras as Selective Ribosome Inhibitors” (Journal of the American Chemical Society, 2026).
Converted amounts (≈) assume the structure as drawn.

Experiments:
[1] = tested on: Acinetobacter baumannii ATCC 17978; test: Antibacterial MIC assay, serial dilution; format: cell-based; settings: ATCC17978, range from biological replicates
Description: (§1) Media and solutions were autoclaved or sterile filtered prior to use and mani pulations were carri ed out in a laminar flow hood. Antibacterial t esting was performed in polypropylene 96-well flat bottom plates. The minimal inhibitory concentration of blasticidin S (1) hydrochloride, methyl ester (3) trihydrochloride, P10 (2) tri-T FA , phenet hyl amide (4) tri -T FA , an d blastimidines M 19– 22, A, 29–32, P 37–40, and C 43–46 (salt forms as described in the te xt) were assessed against Staphylococcus aureus ΔNorA, S. aureus ATCC 6538P, methicillin-resistant S. aureus (MRSA) ATCC 43300, Enterococcus faecalis ATCC 29212, vancomycin- resistant Enterococcus, Klebsiella pneumoniae ATCC 29665, Pseudomonas aeruginosa,and Acinetobacter baumannii ATCC 17978 using serial dilutions. Doxycycline (Gold Bio) as a positive control and the vehicle as a negative control. Stock solutions of each compound were prepared at 2.56 mg/mL in 50% DMSO/water and serially diluted in 50% DMSO/water to create master plates. From the master plates, 10 μ L o f each dilution was applied to test plates using a Bravo automated liquid transfer system (Agilent).
(§2) Bacteria previously grown overnight (37 °C, 120–200 RPM), in LB broth were diluted to an OD600 of 0.05 in cation-adjusted Mueller-Hinton broth (CAMHB), grown to an OD600 of ~0.5, and diluted to an OD600 of 0.004 in CAMHB . These diluted cultures were applied to the test plates (190 μL per test well) resulting in final concentrations of the test compounds of 128–1 μg/ m L.
(§3) Growth controls (wells with inoculated media but no vehicle or test compounds) were included to assess any potential toxicity from the vehicle. Th e plates were in cubated at 37 °C for 16–18 h, except fo r VRE and E. faecalis, which w ere in cub ated at 37 °C fo r 24 h. Inh ibition was determined by measuring the optical density at 600 nm (OD60 0) with a Cytation 3 pl ate read er (BioTek). The optical density measurem ents were no rmalized to the positive and negative controls and the vehicle and growth controls were compared and found to b e indistinguishable, indicating no toxicity from […]
(§4) the vehicle used. The MIC was the lowest concentration that inhibited >90% of growth. Two biological replicates were performed in duplicate. MIC values are reported as a range from […]

[2] = tested on: Klebsiella pneumoniae ATCC 29665; test: Antibacterial MIC assay, serial dilution; format: cell-based; settings: for Selectivity index (CC50/MIC) K. pneumoniae: CC50 Vero cells / MIC; for MIC: Klebsiella pneumoniae, ATCC29665, range from biological replicates, read-out: MIC K. pneumoniae ATCC-29665
Description: as §1, §2, §3, §4

[3] = tested on: Enterococcus faecalis ATCC 29212; test: Antibacterial MIC assay, serial dilution; format: cell-based; settings: for Selectivity index (CC50/MIC) E. faecalis 29212: CC50 Vero cells / MIC; for MIC: Enterococcus faecalis, ATCC 29112 / ATCC 29212, 24 h, read-out: MIC E. faecalis ATCC 29112
Description: as §1, §2, §3, §4

[4] = tested on: Vancomycin resistant Enterococcus faecium NR-31909 (VRE); test: Antibacterial MIC assay, serial dilution; format: cell-based; settings: for Selectivity index (CC50/MIC) VRE NR-31909: CC50 Vero cells / MIC; for MIC: Enterococcus faecium, VRE, 24 h, read-out: MIC Vancomycin resistant Enterococcus faecium NR-31909 (VRE)
Description: as §1, §2, §3, §4

Pseudomonas aeruginosa = test: Antibacterial MIC assay, serial dilution; format: cell-based; settings: for Selectivity index (CC50/MIC) P. aeruginosa: CC50 Vero cells / MIC; for MIC: Pseudomonas aeruginosa, range from biological replicates, read-out: MIC P. aeruginosa
Description: as §1, §2, §3, §4

[5] = tested on: Methicillin resistant Staphylococcus epidermidis (MRSE) ATCC 35984 NRS101; test: Antibacterial MIC assay, serial dilution; format: cell-based; settings: for Selectivity index (CC50/MIC) MRSE 35984: CC50 Vero cells / MIC; for MIC: Staphylococcus epidermidis, read-out: MIC Methicillin resistant Staphylococcus epidermidis (MRSE) ATCC 35984 NRS101
[6] = Cytotoxicity assay (MTS/PMS); format: cell-based; settings: monkey, Vero cells (monkey kidney epithelial cells); 24 h treatment, MTS/PMS, average of three biological replicates; read-out: CC50 against Vero cells
Description: The potential cytotoxic eff ect of the test compounds was investigated using Vero cells (monkey kidney epitheli al cells) following est ablished protocols.3 Briefly, Vero cells were plated into 96-well plates supplemented with Dulbecco's Modified Eagle Medium (DMEM) containing 10% fetal bovine serum (FBS). The cells were placed in a humidified 37 °C environment for incubation with 5% CO₂ for 24 h to allow proper adherence and growth. Following the incubation period, the culture medium was replaced with fresh DMEM containing serial dilutions of the test compounds, while the v ehicle alon e w as used as a negative control. The treated cells were incubated for an additional 24 h. To assess cell viability, the MTS/PMS reagent was added to each well and incubat ed for 4 h. A microplate reader (S ynergy H1, BioTek, USA) was used to m easure absorbance at 490 nm. Al l experiments wer e cond ucted usingthree biologi cal replicates .
Ta b l e S2. CC50 valuesa (µg/mL) against Vero cells […]
aValues at which the cell viability (normalized to vehicle control) was 50%. […]

[7] = tested on: Escherichia coli BAA-2452; test: Antibacterial MIC assay, serial dilution; format: cell-based; settings: BAA2452, read-out: MIC Escherichia coli BAA-2452
[8] = tested on: Vancomycin resistant E. faecalis NR-31972 (VRE); test: Antibacterial MIC assay, serial dilution; format: cell-based, Enterococcus faecalis; settings: for Selectivity index (CC50/MIC) VRE NR-31972: CC50 Vero cells / MIC; for MIC: Enterococcus faecalis, VRE, 24 h, read-out: MIC Vancomycin resistant E. faecalis NR-31972 (VRE)
Description: as §1, §2, §3, §4

[9] = tested on: Methicillin resistant S. aureus (MRSA) USA300; test: Antibacterial MIC assay, serial dilution; format: cell-based, Staphylococcus aureus; settings: for Selectivity index (CC50/MIC) MRSA USA300: CC50 Vero cells / MIC; for MIC: Staphylococcus aureus, read-out: MIC Methicillin resistant S. aureus (MRSA) USA300
MRSA ATCC 43300 = test: Antibacterial MIC assay, serial dilution; format: cell-based, Staphylococcus aureus; settings: for Selectivity index (CC50/MIC) MRSA 43300: CC50 Vero cells / MIC; for MIC: Staphylococcus aureus, read-out: MIC MRSA ATCC 43300
Description: as §1, §2, §3, §4

S. aureus ATCC 6538P = test: Antibacterial MIC assay, serial dilution; format: cell-based, Staphylococcus aureus; settings: for Selectivity index (CC50/MIC) S. aureus 6538P: CC50 Vero cells / MIC; for MIC: Staphylococcus aureus, ATCC 6538P / ATCC 6539P, read-out: MIC S. aureus ATCC 6539P
Description: as §1, §2, §3, §4

S. aureus ΔNorA = test: Antibacterial MIC assay, serial dilution; format: cell-based, Staphylococcus aureus; settings: for Selectivity index (CC50/MIC) S. aureus ΔNorA: CC50 Vero cells / MIC; for MIC: Staphylococcus aureus, read-out: MIC S. aureus ∆NorA
Description: as §1, §2, §3, §4

SMILES | MIC [1] | Selectivity index (CC50/MIC) K. pneumoniae [2] | MIC [2] | Selectivity index (CC50/MIC) E. faecalis 29212 [3] | MIC [3] | Selectivity index (CC50/MIC) VRE NR-31909 [4] | MIC [4] | Selectivity index (CC50/MIC) P. aeruginosa (Pseudomonas aeruginosa) | MIC (Pseudomonas aeruginosa) | Selectivity index (CC50/MIC) MRSE 35984 [5] | MIC [5] | CC50 at 24 h [6] | MIC [7] | Selectivity index (CC50/MIC) VRE NR-31972 [8] | MIC [8] | Selectivity index (CC50/MIC) MRSA USA300 [9] | MIC [9] | Selectivity index (CC50/MIC) MRSA 43300 (MRSA ATCC 43300) | MIC (MRSA ATCC 43300) | Selectivity index (CC50/MIC) S. aureus 6538P (S. aureus ATCC 6538P) | further results
CN(CC[C@H](N)CC(=O)N[C@H]1C=C[C@H](n2ccc(NC(=O)c3ccc(N)cc3)nc2=O)O[C@@H]1C(=O)O)C(=N)N [Blastimidine C2] | > 128 µg/mL | 1.0 | 64 µg/mL (≈ 118 µM) | 1.0 | 64 µg/mL (≈ 118 µM) | 1.0 | 64 µg/mL (≈ 118 µM) | <0.5 | > 128 µg/mL | <0.5 | > 128 µg/mL | 66 µg/mL (≈ 122 µM) | 64 µg/mL (≈ 118 µM) | 0.5 | 128 µg/mL (≈ 236 µM) | 0.5 | 128 µg/mL (≈ 236 µM) | <0.5 | > 128 µg/mL | <0.5 | MIC (S. aureus ATCC 6538P): > 128 µg/mL; Selectivity index (CC50/MIC) S. aureus ΔNorA (S. aureus ΔNorA): <0.5; MIC (S. aureus ΔNorA): > 128 µg/mL
CNc1ccc(C(=O)Nc2ccn([C@H]3C=C[C@H](NC(=O)C[C@@H](N)CCN(C)C(=N)N)[C@@H](C(=O)O)O3)c(=O)n2)cc1 [Blastimidine C3] | > 128 µg/mL | 1.7 | 64 to 128 µg/mL (≈ 115 to 230 µM) | 2.2 | 64 µg/mL (≈ 115 µM) | 2.2 | 64 µg/mL (≈ 115 µM) | <1.1 | > 128 µg/mL | <1.1 | > 128 µg/mL | 142 µg/mL (≈ 256 µM) | > 128 µg/mL | 1.1 | 128 µg/mL (≈ 230 µM) | 1.1 | 128 µg/mL (≈ 230 µM) | <1.1 | > 128 µg/mL | <1.1 | MIC (S. aureus ATCC 6538P): > 128 µg/mL; Selectivity index (CC50/MIC) S. aureus ΔNorA (S. aureus ΔNorA): <1.1; MIC (S. aureus ΔNorA): > 128 µg/mL
CN(CC[C@H](N)CC(=O)N[C@H]1C=C[C@H](n2ccc(NC(=O)c3ccc(NC(=O)[C@@](C)(N)CO)cc3)nc2=O)O[C@@H]1C(=O)O)C(=N)N [Blastimidine C5] | > 128 µg/mL | <1.4 | > 128 µg/mL | <1.4 | > 128 µg/mL | <1.4 | > 128 µg/mL | <1.4 | > 128 µg/mL | <1.4 | > 128 µg/mL | 177 µg/mL (≈ 275 µM) | > 128 µg/mL | <1.4 | > 128 µg/mL | <1.4 | > 128 µg/mL | <1.4 | > 128 µg/mL | <1.4 | MIC (S. aureus ATCC 6538P): > 128 µg/mL; Selectivity index (CC50/MIC) S. aureus ΔNorA (S. aureus ΔNorA): <1.4; MIC (S. aureus ΔNorA): > 128 µg/mL
COC(=O)[C@H]1O[C@@H](n2ccc(N)nc2=O)C=C[C@@H]1NC(=O)C[C@@H](N)CCN(C)C(=N)N [Blastimidine M1, blasticidin S methyl ester] | 128 µg/mL (≈ 293 µM) | 0.4 | 64 µg/mL (≈ 147 µM) | 1.8 | 16 µg/mL (≈ 36.7 µM) | 0.4 | 64 µg/mL (≈ 147 µM) | 0.4 | 64 µg/mL (≈ 147 µM) | 1.8 | 16 µg/mL (≈ 36.7 µM) | 28 µg/mL (≈ 64.2 µM) | 8 µg/mL (≈ 18.3 µM) | 0.9 | 32 µg/mL (≈ 73.3 µM) | 3.6 | 8 µg/mL (≈ 18.3 µM) | 1.3 | 16 to 32 µg/mL (≈ 36.7 to 73.3 µM) | 1.3 | MIC (S. aureus ATCC 6538P): 16 to 32 µg/mL (≈ 36.7 to 73.3 µM); Selectivity index (CC50/MIC) S. aureus ΔNorA (S. aureus ΔNorA): 0.3; MIC (S. aureus ΔNorA): 64 to 128 µg/mL (≈ 147 to 293 µM)
